Data published in ChEMBL document CHEMBL5518227, “Discovery of JNJ-1802, a First-in-Class Pan-Serotype Dengue Virus NS4B Inhibitor” (J Med Chem, 2024).
Values after ≈ are worked out from the molar mass of the structure shown. Values joined by “and” are separate entries in the source; they are usually repeats but may differ in a detail not shown here. Equal values may be shown once.

Columns and labels:
dengue virus type 1 = assay: Antiviral activity against DENV-1 TC974#666 infected in african green monkey Vero cells incubated for 24 hrs measured after 3 days post infection by RT-PCR analysis; assay type: functional, organism-based
[1] = Metabolic stability in rat liver microsomes assessed as intrinsic clearance preincubated for 5 mins followed by NADPH addition measured upto 60 mins by LC-MS/MS analysis; assay type: ADME, Microsome; conditions: time < 65 min, read-out: CLH
dengue virus type 3 = assay: Antiviral activity against DENV-3 H87 infected in african green monkey Vero cells incubated for 24 hrs measured after 3 days post infection by RT-PCR analysis; assay type: functional, organism-based
[2] = Metabolic stability in human liver microsomes assessed as intrinsic clearance preincubated for 5 mins followed by NADPH addition measured upto 60 mins by LC-MS/MS analysis; assay type: ADME, Microsome; conditions: time < 65 min, read-out: CLH
[3] = Metabolic stability in mouse liver microsomes assessed as intrinsic clearance preincubated for 5 mins followed by NADPH addition measured upto 60 mins by LC-MS/MS analysis; assay type: ADME, Microsome; conditions: time < 65 min, read-out: CLH
dengue virus type 4 = assay: Antiviral activity against DENV-4 H241 infected in african green monkey Vero cells incubated for 24 hrs measured after 3 days post infection by RT-PCR analysis; assay type: functional, organism-based
dengue virus type 2 = assay: Antiviral activity against DENV-2 16681 expressing eGFP infected in african green monkey Vero cells incubated with cells for 24 hrs followed by viral infection measured after 3 days by laser microscopic analysis; assay type: functional, organism-based; conditions: Dengue virus, 16681, Vero
[4] = Chromatographic hydrophobicity index, log D of the compound at pH 7.4 by LC/MS analysis; assay type: physicochemical; conditions: buffer
[5] = Metabolic stability in human hepatocytes assessed as intrinsic clearance measured per million cells incubated upto 120 mins by LC-MS/MS analysis; assay type: ADME, cell-based, Hepatocyte; conditions: read-out: CLH
[6] = Metabolic stability in rat hepatocytes assessed as intrinsic clearance measured per million cells incubated upto 120 mins by LC-MS/MS analysis; assay type: ADME, cell-based, Hepatocyte; conditions: read-out: CLH
[7] = Cmax in Sprague-Dawley rat at 10 mg/kg, po measured after 24 to 48 hrs by LC-MS/MS analysis; assay type: ADME, organism-based; conditions: in vivo, time 24-48 hrs
[8] = AUC in Sprague-Dawley rat at 10 mg/kg, po measured after 24 to 48 hrs by LC-MS/MS analysis; assay type: ADME, organism-based; conditions: in vivo, time 24-48 hrs
[9] = Elimination half life in Sprague-Dawley rat at 2.5 mg/kg, iv measured after 24 hrs by LC-MS/MS analysis; assay type: ADME, organism-based; conditions: in vivo, read-out: beta t1/2 (converted)
[10] = Clearance in Sprague-Dawley rat at 2.5 mg/kg, iv measured after 24 hrs by LC-MS/MS analysis; assay type: ADME, organism-based; conditions: in vivo
[11] = Oral bioavailability in Sprague-Dawley rat at 10 mg/kg measured after 24 to 48 hrs by LC-MS/MS analysis; assay type: ADME, organism-based; conditions: in vivo, time 24-48 hrs
[12] = Volume of distribution at steady state in Sprague-Dawley rat at 2.5 mg/kg, iv measured after 24 hrs by LC-MS/MS analysis; assay type: ADME, organism-based; conditions: in vivo, read-out: Vdss
[13] = Thermodynamic solubility of the compound in aqueous buffer at pH 7.4 measured after 24 hrs by UPLC analysis; assay type: physicochemical; conditions: read-out: Therm_solubility
[14] = Clearance in Sprague-Dawley rat assessed as liver blood flow at 2.5 mg/kg, iv measured after 24 hrs by LC-MS/MS analysis; assay type: ADME, organism-based; conditions: in vivo
[15] = Dengue virus, TC974#666, Vero, read-out: EC50
[16] = Dengue virus, H87, Vero, read-out: EC50

SMILES | EC50 (dengue virus type 1; [15]) | EC50 (dengue virus type 3; [16]) | microsomal CLint [2] | EC50 (dengue virus type 4) | EC50 (dengue virus type 2) | Chromatographic log D at pH 7.4 [4] | hepatocyte CLint [5] | further results
COc1cc(NC(C(=O)c2c[nH]c3ccccc23)c2ccc(F)cc2)cc(S(C)(=O)=O)c1 (stereo unspecified) | 88 nM | 680 nM | 12 µL/min/mg | 1800 nM | 9 nM | – | – | microsomal CLint [1]: 16 µL/min/mg; microsomal CLint [3]: 48 µL/min/mg
COc1cc(NC(C(=O)c2c[nH]c3c(C)c(OC)ccc23)c2ccc(Cl)cc2OC)cc(S(C)(=O)=O)c1 (single isomer, unassigned; (+)) | 2 nM | 19 nM | < 8 µL/min/mg | 95 nM | 0.11 nM | 3.59 | 14 µL/min/1e6 cells | –
COc1cc(NC(C(=O)c2c[nH]c3cc(OC)c(C)cc23)c2ccc(Cl)cc2OCCO)cc(S(C)(=O)=O)c1 (single isomer, unassigned; (+)) | 2 nM | 17 nM | – | 53 nM | 0.37 nM | 3.24 | < 1.9 µL/min/1e6 cells | hepatocyte CLint [6]: 3.7 µL/min/1e6 cells; Cmax [7]: 103 ng/mL; AUC [8]: 1200 ng·h/mL; half-life [9]: 4.7 h; clearance [10]: 21 mL/min/kg; bioavailability [11]: 16%; Vd [12]: 7.1 L/kg; solubility thermodynamic at 24 h [13]: < 1 µg/mL; LBF [14]: 31%
COc1cc(NC(C(=O)c2c[nH]c3cc(OC)c(OC(F)(F)F)cc23)c2ccc(Cl)cc2OC)cc(S(C)(=O)=O)c1 (single isomer, unassigned; (+)) | 0.3 nM | 4 nM | < 8 µL/min/mg | 11 nM | 0.057 nM | 3.82 | < 1.2 µL/min/1e6 cells | –
COc1cc(NC(C(=O)c2c[nH]c3cc(F)ccc23)c2ccc(F)cc2OCCO)cc(S(C)(=O)=O)c1 (single isomer, unassigned; (+)) | 8 nM | 68 nM | – | 290 nM | 1 nM | Not Active | 27 µL/min/1e6 cells | hepatocyte CLint [6]: 8.8 µL/min/1e6 cells; Cmax [7]: 104 ng/mL; AUC [8]: 1250 ng·h/mL; half-life [9]: 3.9 h; clearance [10]: 35 mL/min/kg; bioavailability [11]: 27%; Vd [12]: 10 L/kg; solubility thermodynamic at 24 h [13]: 1 µg/mL (≈ 1.88 µM); LBF [14]: 40%
COc1cc(NC(C(=O)c2c[nH]c3ccc(C(F)(F)F)cc23)c2ccc(Cl)cc2OC)cc(S(C)(=O)=O)c1 (single isomer, unassigned; (+)) | 0.4 nM | 6 nM | < 8 µL/min/mg | 15 nM | 0.31 nM | 3.87 | < 1.2 µL/min/1e6 cells | –
COc1cc(NC(C(=O)c2c[nH]c3cc(OC)c(C)cc23)c2ccc(F)cc2OCCO)cc(S(C)(=O)=O)c1 (single isomer, unassigned; (+)) | 3 nM | 43 nM | – | 110 nM | 0.84 nM | 2.98 | < 1.9 µL/min/1e6 cells | hepatocyte CLint [6]: 11 µL/min/1e6 cells; Cmax [7]: 94 ng/mL; AUC [8]: 1010 ng·h/mL; half-life [9]: 4.2 h; clearance [10]: 30 mL/min/kg; bioavailability [11]: 18%; Vd [12]: 9.6 L/kg; solubility thermodynamic at 24 h [13]: < 1 µg/mL; LBF [14]: 42%
COc1cc(NC(C(=O)c2c[nH]c3cc(OC)ccc23)c2ccc(Cl)cc2OC)cc(S(C)(=O)=O)c1 (single isomer, unassigned; (+)) | 4 nM | 48 nM | < 8 µL/min/mg | 110 nM | 0.3 nM | 3.23 | 10 µL/min/1e6 cells | –
COc1cc(NC(C(=O)c2c[nH]c3ccccc23)c2ccc(F)cc2)cc(S(=O)(=O)CCCO)c1 (stereo unspecified) | – | – | 35 µL/min/mg | 14000 nM | 230 nM | – | – | EC50 (dengue virus type 1; vero): Not Active; microsomal CLint [1]: 66 µL/min/mg; EC50 (dengue virus type 3; vero): Not Active
COc1cc(NC(C(=O)c2c[nH]c3c(C)c(F)ccc23)c2ccc(Cl)cc2OC)cc(S(C)(=O)=O)c1 (single isomer, unassigned; (+)) | 2 nM | 19 nM | < 8 µL/min/mg | 83 nM | 0.24 nM | 3.73 | – | –
COc1cc(NC(C(=O)c2c[nH]c3cc(OC)c(F)cc23)c2ccc(Cl)cc2OC)cc(S(C)(=O)=O)c1 (single isomer, unassigned; (+)) | 4 nM | 53 nM | < 8 µL/min/mg | 100 nM | 0.34 nM | 3.22 | 10 µL/min/1e6 cells | –
COc1cc(NC(C(=O)c2c[nH]c3cc(F)c(C)cc23)c2ccc(Cl)cc2OC)cc(S(C)(=O)=O)c1 (single isomer, unassigned; (+)) | 0.4 nM | 8 nM | < 8 µL/min/mg | 44 nM | 0.17 nM | 3.68 | 2.4 µL/min/1e6 cells | –
COc1cc(NC(C(=O)c2c[nH]c3cc(F)ccc23)c2ccc(Cl)cc2OCCO)cc(S(C)(=O)=O)c1 (single isomer, unassigned; (+)) | 1 nM | 9 nM | – | 71 nM | 0.46 nM | – | 29 µL/min/1e6 cells | –
COc1cc(NC(C(=O)c2c[nH]c3c(C)cc(OC(F)(F)F)cc23)c2ccc(Cl)cc2OC)cc(S(C)(=O)=O)c1 (stereo unspecified) | 0.1 nM | 1 nM | < 8 µL/min/mg | 11 nM | 0.051 nM | 4.16 | < 1.2 µL/min/1e6 cells | –
COc1cc(NC(C(=O)c2c[nH]c3cc(F)ccc23)c2ccc(Cl)cc2OC)cc(S(C)(=O)=O)c1 (single isomer, unassigned; (+)) | – | – | < 8 µL/min/mg | – | – | 3.46 | – | EC50 (dengue virus type 1; vero, read-out: EC50): 20 nM and 2 nM
